Results on one compound are retold here after patent US11572590B2, “Methods for evaluating tumor cell spheroids using 3D microfluidic cell culture device” (Dana-Farber Cancer Institute, Inc., priority 2017, dated 2023).

In general, inhibition refers to the share of the control response that was lost under treatment.

What all share (assay): SelectScreen Kinase Profiling, single point inhibition and IC50 for off-target kinases
Common to all, as to type: biochemical

Assay [1] deals with off-target kinases (Homo sapiens, UniProt Q00526). The note with it: CDK3/cyclin E1, LanthaScreen Binding. Background: Time-resolved FRET reads energy transfer from a long-lived donor to a nearby acceptor.
Chain of off-target kinases (Homo sapiens, UniProt Q00526) (Q00526 whole entry): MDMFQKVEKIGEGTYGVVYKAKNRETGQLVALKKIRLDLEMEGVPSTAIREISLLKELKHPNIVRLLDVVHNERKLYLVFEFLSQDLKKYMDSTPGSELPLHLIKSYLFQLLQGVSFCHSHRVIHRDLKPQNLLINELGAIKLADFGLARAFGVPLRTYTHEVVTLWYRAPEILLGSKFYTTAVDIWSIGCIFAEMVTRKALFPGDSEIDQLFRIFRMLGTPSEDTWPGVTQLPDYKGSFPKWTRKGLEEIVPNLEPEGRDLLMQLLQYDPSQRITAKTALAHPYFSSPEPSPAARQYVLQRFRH
Assay [2] concerns the target off-target kinases (Homo sapiens, UniProt P10721, T670I). The note with it: KIT T670I (mutant), ZLYTE, ATP Km app.
Assay [3] concerns the target T1, off-target kinases (Homo sapiens, UniProt Q99759).
T1 sequence (Q99759 1-626): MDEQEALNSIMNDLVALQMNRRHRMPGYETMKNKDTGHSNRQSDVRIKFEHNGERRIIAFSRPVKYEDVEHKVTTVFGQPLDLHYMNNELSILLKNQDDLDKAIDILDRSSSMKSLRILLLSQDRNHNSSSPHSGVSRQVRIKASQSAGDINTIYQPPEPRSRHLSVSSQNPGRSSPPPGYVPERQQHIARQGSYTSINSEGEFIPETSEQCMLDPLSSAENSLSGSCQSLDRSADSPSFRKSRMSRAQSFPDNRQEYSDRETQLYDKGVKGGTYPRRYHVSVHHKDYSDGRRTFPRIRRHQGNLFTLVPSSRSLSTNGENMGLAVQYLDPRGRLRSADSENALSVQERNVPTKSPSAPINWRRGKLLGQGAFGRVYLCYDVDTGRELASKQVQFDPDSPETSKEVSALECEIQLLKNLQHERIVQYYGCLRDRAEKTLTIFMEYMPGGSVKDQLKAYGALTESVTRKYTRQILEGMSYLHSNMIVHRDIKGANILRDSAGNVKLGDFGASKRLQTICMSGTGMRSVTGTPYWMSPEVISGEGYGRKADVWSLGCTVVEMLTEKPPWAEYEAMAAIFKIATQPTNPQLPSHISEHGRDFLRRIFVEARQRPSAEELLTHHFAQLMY
The following applies: MAP3K3 (MEKK3), LanthaScreen Binding.

Assay [4] has as its target off-target kinases (Homo sapiens, UniProt Q9P0L2). The following applies: MARK1 (MARK), ATP Km app, ZLYTE.
In assay [5] the target is off-target kinases (Homo sapiens, UniProt P16234, T674I). The note with it: PDGFRA T674I, mutant y, ZLYTE, ATP Km app.
Chain of off-target kinases (Homo sapiens, UniProt P16234, T674I) (P16234 24-1089 T674I): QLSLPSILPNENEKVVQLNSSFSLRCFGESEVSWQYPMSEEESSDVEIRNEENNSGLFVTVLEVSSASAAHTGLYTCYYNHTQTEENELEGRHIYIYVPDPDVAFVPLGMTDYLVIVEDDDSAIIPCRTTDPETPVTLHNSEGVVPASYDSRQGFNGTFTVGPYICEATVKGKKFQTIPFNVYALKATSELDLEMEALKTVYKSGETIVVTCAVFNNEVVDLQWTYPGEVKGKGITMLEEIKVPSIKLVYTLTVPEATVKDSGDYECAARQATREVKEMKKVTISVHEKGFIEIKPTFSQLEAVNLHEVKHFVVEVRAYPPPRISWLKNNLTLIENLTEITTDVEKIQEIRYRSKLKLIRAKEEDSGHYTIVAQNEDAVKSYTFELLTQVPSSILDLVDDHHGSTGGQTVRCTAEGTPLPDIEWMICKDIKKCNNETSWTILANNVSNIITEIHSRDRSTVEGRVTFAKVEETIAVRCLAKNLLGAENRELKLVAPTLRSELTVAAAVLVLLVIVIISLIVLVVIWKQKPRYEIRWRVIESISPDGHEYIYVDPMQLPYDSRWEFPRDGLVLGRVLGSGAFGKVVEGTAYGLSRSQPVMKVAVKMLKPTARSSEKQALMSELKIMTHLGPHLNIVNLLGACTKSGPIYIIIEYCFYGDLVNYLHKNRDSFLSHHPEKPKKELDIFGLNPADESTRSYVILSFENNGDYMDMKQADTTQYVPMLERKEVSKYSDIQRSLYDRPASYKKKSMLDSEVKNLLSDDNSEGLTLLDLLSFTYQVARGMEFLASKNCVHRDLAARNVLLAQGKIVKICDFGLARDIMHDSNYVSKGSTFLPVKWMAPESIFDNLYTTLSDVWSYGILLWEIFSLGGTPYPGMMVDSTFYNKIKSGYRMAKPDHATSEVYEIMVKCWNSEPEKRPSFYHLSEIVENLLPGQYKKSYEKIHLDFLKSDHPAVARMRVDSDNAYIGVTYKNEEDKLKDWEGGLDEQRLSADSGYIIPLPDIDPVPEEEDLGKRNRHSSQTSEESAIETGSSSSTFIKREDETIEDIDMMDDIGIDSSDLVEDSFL
In assay [6] the target is off-target kinases (Homo sapiens, UniProt P10721). The note with it: KIT, ZLYTE, ATP Km app.
Chain of off-target kinases (Homo sapiens, UniProt P10721) (P10721 26-976): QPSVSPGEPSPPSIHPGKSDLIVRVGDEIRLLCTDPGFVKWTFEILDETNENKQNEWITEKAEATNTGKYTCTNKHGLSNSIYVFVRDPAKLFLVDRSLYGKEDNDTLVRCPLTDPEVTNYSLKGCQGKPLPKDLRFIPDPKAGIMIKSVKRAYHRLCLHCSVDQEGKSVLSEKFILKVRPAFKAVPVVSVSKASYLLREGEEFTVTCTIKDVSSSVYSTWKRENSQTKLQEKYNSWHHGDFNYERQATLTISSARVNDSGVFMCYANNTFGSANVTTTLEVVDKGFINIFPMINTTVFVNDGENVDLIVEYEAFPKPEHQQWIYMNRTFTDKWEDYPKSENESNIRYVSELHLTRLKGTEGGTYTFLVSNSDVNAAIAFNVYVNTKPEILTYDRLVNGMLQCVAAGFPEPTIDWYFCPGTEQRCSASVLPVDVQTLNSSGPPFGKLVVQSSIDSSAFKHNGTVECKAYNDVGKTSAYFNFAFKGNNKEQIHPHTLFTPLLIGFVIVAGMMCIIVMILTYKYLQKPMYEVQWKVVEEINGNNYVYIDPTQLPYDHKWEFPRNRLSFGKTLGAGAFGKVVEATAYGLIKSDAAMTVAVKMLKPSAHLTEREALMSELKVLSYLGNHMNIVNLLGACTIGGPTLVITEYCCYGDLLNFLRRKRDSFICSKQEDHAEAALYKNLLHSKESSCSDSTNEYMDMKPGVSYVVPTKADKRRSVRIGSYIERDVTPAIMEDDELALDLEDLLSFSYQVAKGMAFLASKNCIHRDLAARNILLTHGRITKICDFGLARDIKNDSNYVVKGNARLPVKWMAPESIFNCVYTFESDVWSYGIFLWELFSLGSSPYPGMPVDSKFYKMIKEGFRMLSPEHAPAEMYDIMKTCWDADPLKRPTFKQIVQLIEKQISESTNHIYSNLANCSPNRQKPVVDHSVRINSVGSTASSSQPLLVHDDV
Assay [7] has as its target off-target kinases (Homo sapiens, UniProt Q9BYT3). The following applies: STK33, LanthaScreen Binding.

Like-named read-outs stand apart in the source and are kept apart here.

Chain of off-target kinases (Homo sapiens, UniProt Q9P0L2) (Q9P0L2 whole entry): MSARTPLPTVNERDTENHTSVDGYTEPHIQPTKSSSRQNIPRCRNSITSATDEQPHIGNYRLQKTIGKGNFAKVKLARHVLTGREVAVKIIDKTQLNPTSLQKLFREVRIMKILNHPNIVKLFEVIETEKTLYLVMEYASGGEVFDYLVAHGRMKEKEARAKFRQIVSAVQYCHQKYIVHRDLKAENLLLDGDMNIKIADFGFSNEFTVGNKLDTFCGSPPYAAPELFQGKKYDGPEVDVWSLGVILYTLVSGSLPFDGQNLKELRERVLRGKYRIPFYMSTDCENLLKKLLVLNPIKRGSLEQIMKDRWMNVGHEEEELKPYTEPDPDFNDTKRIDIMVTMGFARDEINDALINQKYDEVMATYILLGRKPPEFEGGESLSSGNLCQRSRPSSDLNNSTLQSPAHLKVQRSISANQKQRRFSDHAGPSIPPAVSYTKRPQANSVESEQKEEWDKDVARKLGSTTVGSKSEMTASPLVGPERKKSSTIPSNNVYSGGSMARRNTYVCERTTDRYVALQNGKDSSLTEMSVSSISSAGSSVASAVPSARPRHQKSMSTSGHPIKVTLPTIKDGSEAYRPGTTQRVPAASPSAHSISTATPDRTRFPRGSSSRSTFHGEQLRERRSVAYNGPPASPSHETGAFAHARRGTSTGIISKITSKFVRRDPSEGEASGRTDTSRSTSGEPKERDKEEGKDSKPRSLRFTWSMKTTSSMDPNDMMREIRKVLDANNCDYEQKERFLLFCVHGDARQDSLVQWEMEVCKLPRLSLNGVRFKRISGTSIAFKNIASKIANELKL
Chain of off-target kinases (Homo sapiens, UniProt Q9BYT3) (Q9BYT3 whole entry): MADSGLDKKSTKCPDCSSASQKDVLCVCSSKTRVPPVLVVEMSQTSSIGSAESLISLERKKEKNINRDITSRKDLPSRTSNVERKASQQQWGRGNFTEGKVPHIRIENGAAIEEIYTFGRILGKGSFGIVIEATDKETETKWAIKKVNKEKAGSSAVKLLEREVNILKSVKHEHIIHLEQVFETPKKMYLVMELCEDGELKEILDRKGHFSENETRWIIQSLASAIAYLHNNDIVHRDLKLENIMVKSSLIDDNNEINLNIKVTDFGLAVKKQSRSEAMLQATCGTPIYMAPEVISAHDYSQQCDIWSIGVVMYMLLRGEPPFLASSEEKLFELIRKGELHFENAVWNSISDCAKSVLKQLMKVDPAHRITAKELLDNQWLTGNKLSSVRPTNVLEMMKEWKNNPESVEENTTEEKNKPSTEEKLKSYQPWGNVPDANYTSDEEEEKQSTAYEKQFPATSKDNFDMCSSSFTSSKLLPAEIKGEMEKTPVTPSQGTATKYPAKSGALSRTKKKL
Chain of off-target kinases (Homo sapiens, UniProt P10721, T670I) (P10721 26-976 T670I): as the sequence (P10721 26-976) above, with T645I counted along it

Turning to `N#Cc1cc(-c2ncnc(Nc3ccc(N4CCN(C5COC5)CC4)cc3)n2)ccc1OC1CCOCC1` [Compound 1, 5-(4-((4-(4-(oxetan-3-yl)piperazin-1-yl)phenyl)amino)-1,3,5-triazin-2-yl)-2-((tetrahydro-2H-pyran-4-yl)oxy)benzonitrile], the inhibition on off-target kinases [1] (read-out: % Inhibition 1) worked out at 2%; on off-target kinases [1] (read-out: % Inhibition 2), 9%; on off-target kinases [1] (read-out: % Inhibition Avg), 6%; on off-target kinases [2] (read-out: % Inhibition 1) it was 6%; on off-target kinases [2] (read-out: % Inhibition 2), 7%; on off-target kinases [2] (read-out: % Inhibition Avg), 6%. The inhibition at off-target kinases [3] (read-out: % Inhibition 1) stood at 10%; on off-target kinases [3] (read-out: % Inhibition 2) it was 13%; at off-target kinases [3] (read-out: % Inhibition Avg), 12%; at off-target kinases [4] (read-out: % Inhibition 1) it was 85%; on off-target kinases [4] (read-out: % Inhibition 2), 87%; at off-target kinases [4] (read-out: % Inhibition Avg), 86%. Further, the inhibition was determined as 40% on off-target kinases [5] (read-out: % Inhibition 1); 32% on off-target kinases [5] (read-out: % Inhibition 2); 36% at off-target kinases [5] (read-out: % Inhibition Avg); 1% at off-target kinases [6] (read-out: % Inhibition 1); 5% at off-target kinases [6] (read-out: % Inhibition 2); 3% on off-target kinases [6] (read-out: % Inhibition Avg). For the same compound, the inhibition on off-target kinases [7] (read-out: % Inhibition 1) turned out to be 59%; on off-target kinases [7] (read-out: % Inhibition 2), 55%; at off-target kinases [7] (read-out: % Inhibition Avg), 57%.
